{
  "source": "patent US11000502B2",
  "about": "“Antimicrobial compositions comprising copper-hydroxypyrone complexes” (United Kingdom Research and Innovation, priority 2017, dated 2021)",
  "key": {"E. coli NCTC1110": {"test_system": "E. coli NCTC1110", "experiment": "In vitro antibacterial assay for liquid copper solutions (turbidimetric E. coli growth inhibition)", "assay_type": "cell-based", "description": "Preparation of Copper Complexes with EDTA, Maltol and Ethyl Maltol for Antimicrobial Testing\nCu-EDTA complexes were freshly prepared by dissolving CuCl2.2H2O and disodium ethylenediaminetetraacetate (EDTA) di-hydrate in UHP water. The pH was adjusted to 7.5±0.2 with 1M NaOH. Various Cu:EDTA ratios were achieved by maintaining concentration copper at 20 mM (ca. 1270 ppm), whilst changing that of EDTA—20 and 200 mM—thus achieving Cu-EDTA ratios of 1:1 and 1:10, respectively.\nCuMaltol (ratio 1:1) was prepared by mixing equivalent volumes of 100 mM CuCl2.2H2O solution with an alkaline (pH>11) 100 mM maltol solution and quickly diluting the mixture to 10 mM Cu (final pH of 5.7).\nCu Ethylmaltol (ratio 1:1) was prepared by mixing appropriate volumes of 80 mM CuCl2.2H2 O solution with an alkaline (pH>10.5) 20 mM ethylmaltol solution and quickly diluting the mixture to 10 mM Cu and 10 mM ethylmaltol (final pH of 7.2).\nCuMaltol (ratio 1:4) was prepared by mixing appropriate volumes of 80 mM CuCl2.2H2O solution with an alkaline (pH>10.5) 60 mM maltol solution and quickly diluting the mixture to 10 mM Cu and 40 mM maltol (final pH of 8.5).\nCu Ethylmaltol (ratio 1:4) was prepared by mixing appropriate volumes of 80 mM CuCl2.2H2O solution with an alkaline (pH>10.5) 60 mM ethylmaltol solution and quickly diluting the mixture to 10 mM Cu and 40 mM ethylmaltol (final pH of 8.5).\nHeavy Metal MOPS (HMM) Medium, pH 7.2±0.2.\nHMM is a defined medium developed for testing heavy metals and here was supplemented with glucose and cas-amino acids (acid hydrolysate of casein) and optionally with 4% BSA. HMM was prepared from concentrated stock solutions of each reagent, and pH adjusted to 7.2±0.2 (Table 1). Freshly prepared medium was immediately filtered through a 0.22 micron membrane and stored at 4±2° C.\nIn Vitro Antibacterial Assay for Liquid Copper Solutions\nAntimicrobial activity was assessed through determination of E. coli NCTC1110 growth inhibition in the presence of copper compounds. A turbidimetric assay was used to follow bacterial concentration over time as this is proportional to optical density (OD at 595 nm) in liquid medium. Bacterial cultures were grown overnight in HMM at 30° C. under constant shaking (80 rpm). On the day of the assay, the OD of the bacterial suspension was measured at 595 nm on a plate reader and diluted in HMM to achieve an OD of 0.05. […] Final copper concentrations in the assay ranged between 0.4 and 50 ppm, and OD was measured every hour for a typical period of 6 to 8 hours. OD background, i.e. OD absorbance not caused by bacteria, was determined to remove readout interference from copper and broth. Growth inhibition was calculated as follows: […]"}, "[1]": {"experiment": "Exemplification of redox protection (copper maltol degradation to cuprous hydroxide)", "assay_type": "physicochemical", "conditions": "pH 11.8 with sodium hydroxide; overnight (A) / several days (B, 30% (w/w) PEG)", "description": "Exemplification of Redox Protection\nA 40 mM copper stock was prepared by dissolving 0.347 g copper chloride dihydrate in 50 mL water. The resulting solution was blue.\nA 160 mM maltol stock was prepared by dissolving 1.01 g maltol in 50 mL water and pH adjusting with NaOH (pH>10.5. This produced a clear solution.\nExperiment A: Copper Maltol Degradation\nThe copper and maltol stocks were mixed in water at 1:1 ratios (v:v) producing a green solution. pH was then adjusted to 11.8 with sodium hydroxide to accelerate redox conversion.\nExperiment B: Copper Maltol-PEG Assemblies Prevent Redox Conversion\nSame as experiment A but 30% (w/w) PEG was added."}},
  "data": [
    {"compound": "[Cl][Cu][Cl]", "note": "[copper chloride, reference compound]", "values": [
      {"measurement": "E. coli growth inhibition", "setting": "E. coli NCTC1110; bacterial media (HMM) comprising 4% BSA, 50 ppm copper, 6 hours", "value": 60, "unit": "%"}
    ]},
    {"compound": "copper maltol", "values": [
      {"measurement": "suppression of E. coli growth", "setting": "E. coli NCTC1110; bacterial media (HMM) comprising 4% BSA, 40 ppm copper, 6 hours", "value": "completely suppressed"},
      {"measurement": "redox conversion of Cu2+ to cuprous hydroxide (red precipitate)", "setting": "[1]", "value": "a red precipitate (cuprous hydroxide) deposited"}
    ]},
    {"compound": "Copper ethylmaltol", "values": [
      {"measurement": "antimicrobial properties in protein-rich environments", "setting": "E. coli NCTC1110; HMM with 4% BSA, 6 hours, ratios 1:1 and 1:4", "value": "retained"}
    ]},
    {"compound": "O=C([O-])CN(CCN(CC(=O)[O-])CC(=O)O)CC(=O)O.[Cu+2]", "note": "[copper EDTA, reference compound]", "values": [
      {"measurement": "antibacterial action against E. coli (FIG. 1)", "setting": "E. coli NCTC1110; HMM pH 7.2, 6 hours, Cu:EDTA 1:1 and 1:10", "value": "significantly suppressing its antibacterial action"}
    ]}
  ]
}
